Results from patent publication US10774046B2, “Inhibitors for the treatment of cancer and related methods” (UNIVERSITY OF LOUISVILLE RESEARCH FOUNDATION, INC., priority 2017, dated 2020).

Columns and labels:
[1] = test system: H460 human lung adenocarcinoma xenografts; test: H460 xenograft growth in athymic mice; assay type: in vivo, BALB/c athymic mice
LLC cells = test: cell cycle analysis by flow cytometry; assay type: cell-based, mouse; settings: LLC cells in vitro, 10 μM 5MPN
Procedure: To measure apoptosis, cells were stained with annexin V and propidium iodide and examined as previously described. For example, H460 cells were exposed to increasing concentrations of the PFKFB4 inhibitor (MPN-2), the PFKFB3 inhibitor PFK15 (Tocris) or both and viable cells were counted at 24, 48 and 72 hours. DMSO used as vehicle. For cell cycle experiments, cells were detached, washed with cold PBS and fixed in 70% ethanol (4° C., 30 minutes). The cells then were pelleted by centrifugation, resuspended in PBS containing PI and RNase A, incubated at 37° C. in the dark for 30 minutes and analyzed by flow cytometry (BD FACSCalibur). Data were analyzed using FlowJo software (TREE STAR Inc.). Results were calculated as the mean±SD of three experiments. The effects (Fa values) of the series of concentrations of MPN-2 and PFK-15 were examined individually and in combination at a constant ratio of 1:1.

PFKFB3 = PFKFB3 (Homo sapiens, UniProt Q16875); test: PFKFB3 kinase activity; assay type: biochemical; settings: 10 μM
LLC xenografts = test: Ki67 immunohistochemistry of tumors; assay type: in vivo, C57BL/6 mice; settings: 120 mg/kg by gavage daily, ten days
Procedure: Formalin-fixed, paraffin-embedded tissue sections were processed as previously described then incubated with anti-Ki-67 primary antibody (Abcam) overnight, followed by HRP-linked goat anti-rabbit secondary antibody (1:300, Pierce). Sections were developed with 3,3′-diaminobenzidine tetrahydrochloride, counterstained, scanned and analyzed with the positive pixel count algorithm as previously described. Data are depicted as % positive pixels/total pixels±SD.

PFK-1 = PFK-1 kinase activity; assay type: biochemical; settings: 10 μM
HCT116 = test: proliferation, viable cell count; assay type: cell-based, human; settings: HCT116, over 48 hours
Excerpt: (§1) H460, H1299, H441, H522 and A549 non-small cell lung cancer (NSCLC), MDA-MB-231 (breast), LNCaP (prostatic) and HCT116 (colon) adenocarcinoma and Lewis lung carcinoma (LLC) cell lines were obtained from ATCC and used within 6 months of acquisition. PFKFB4^−/− ear pinna fibroblasts isolated from TamCre/loxP/PFKFB4^−/− mice were immortalized as described previously (Chesney J et al. Fructose-2,6-bisphosphate synthesis by 6-phosphofructo-2-kinase/fructose-2,6-bisphosphatase 4 (PFKFB4) is required for the glycolytic response to hypoxia and tumor growth. Oncotarget 2014 Aug. 30; 5(16):6670-86). Normal bronchial epithelial cells (NHBE) were obtained from Lonza and NHBE cells expressing telomerase, SV40 large T antigen and activated Ras (hT/LT/Ras) were a gift from Dr. B. J. Rollins, Dana Farber Cancer Institute. All cell lines were tested and found negative for mycoplasma (PCR Mycoplasma Detection Kit, ABM). Cell lines were grown in DMEM (A549, LNCaP, MDA-MB-231, LLC and PFKFB4^−/−), RPMI 1640 (H460, H1299, H441, H522) and McCoy's 5A media (HCT116) (all from Invitrogen) containing 10% fetal calf serum (Hyclone). NHBE and hT/LT/Ras cells were grown in BEGM containing SingleQuots (Lonza). All lines were cultured at 37° C. in 5% CO2. In certain experiments, 4-hydroxytamoxifen (4HT, Sigma-Aldrich) was added to PFKFB4^−/− fibroblasts at indicated concentrations.
(§2) Cells were incubated in 20% trypan blue (Sigma) for 5 minutes. Cells excluding trypan blue were counted using a standard hemocytometer (Hausser Scientific) to determine total numbers of viable cells. Data are expressed as mean±SD of three experiments.

H441 = test: proliferation, viable cell count; assay type: cell-based, human; settings: H441, over 48 hours
Excerpt: as §1, §2

H522 = test: proliferation, viable cell count; assay type: cell-based, human; settings: H522, over 48 hours
Excerpt: as §1, §2

MDA-MB-231 = test: proliferation, viable cell count; assay type: cell-based, human; settings: MDA-MB-231, over 48 hours
Excerpt: as §1, §2

H1299 = test: proliferation, viable cell count; assay type: cell-based, human; settings: H1299, over 48 hours
Excerpt: as §1, §2

A549 = test: proliferation, viable cell count; assay type: cell-based, human; settings: A549, over 48 hours
Excerpt: as §1, §2

LNCaP = test: proliferation, viable cell count; assay type: cell-based, human; settings: over 48 hours
Excerpt: as §1, §2

[2] = two-week oral toxicity study; assay type: in vivo; settings: 120 mg/kg PO for two weeks
Procedure: Given the potential usefulness of oral administration in terms of cost and convenience, we elected to pursue this route in subsequent toxicity and efficacy pre-clinical studies. Initially, we dosed C57BL/6 mice with 120 mg/kg PO for two weeks and analyzed the effect on complete blood counts, electrolytes, hepatic and renal function, body mass and the gross and histological appearance of the brain, heart, lungs, liver, kidneys and spleen. […] Next, the effects of oral administration of 5MPN on intratumoral F2,6BP and glucose uptake by LLC xenografts was examined. There was a reduction in F2,6BP (FIG. 4E) and 2-[^18F]-fluoro-2-deoxyglucose uptake using positron emission tomography (FIG. 4F). It was confirmed that 5MPN caused a G1 arrest in LLC cells in vitro similar to H460 cells (FIG. 4G). The number of Ki67-positive cells was examined since Ki-67 expression correlated with later S and G2 phases of the cell cycle (SASAKI et al. “The cell cycle associated change of the Ki-67 reactive nuclear antigen expression” J Cell Physiol (1987) Vol. 133, No. 3, pp. 579-584).

PFKFB3, sequence (Q16875 whole entry, species assumed): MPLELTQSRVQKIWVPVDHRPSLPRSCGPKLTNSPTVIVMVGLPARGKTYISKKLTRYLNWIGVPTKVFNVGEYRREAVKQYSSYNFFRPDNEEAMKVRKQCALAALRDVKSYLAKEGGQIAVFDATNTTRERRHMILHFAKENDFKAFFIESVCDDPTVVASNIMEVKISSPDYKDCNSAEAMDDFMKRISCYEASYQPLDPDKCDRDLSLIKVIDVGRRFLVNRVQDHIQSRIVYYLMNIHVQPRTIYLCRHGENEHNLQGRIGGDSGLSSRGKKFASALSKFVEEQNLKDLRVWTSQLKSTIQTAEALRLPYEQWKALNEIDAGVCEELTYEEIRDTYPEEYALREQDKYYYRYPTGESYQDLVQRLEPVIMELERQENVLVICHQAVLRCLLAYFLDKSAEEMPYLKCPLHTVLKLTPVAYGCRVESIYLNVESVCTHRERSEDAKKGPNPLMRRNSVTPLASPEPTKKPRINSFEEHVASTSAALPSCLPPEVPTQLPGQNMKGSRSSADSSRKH

## COc1cccc2c(NCCCCCO[N+](=O)[O-])ccnc12 [5MPN, 5-[(8-methoxyquinolin-4-yl)amino]pentyl nitrate]
[1]; 5MPN 120 mg/kg oral daily
  tumor growth: suppressed the growth
[1]; H460-bearing athymic mice, 120 mg/kg oral daily
  body weight: without affecting body weight
LLC cells
  cell cycle distribution: G1 arrest
PFKFB3
  inhibition of kinase activity: did not inhibit
LLC xenografts
  Ki67-positive cells: reduction in Ki67-positive cells
PFK-1
  inhibition of kinase activity: did not inhibit
HCT116
  growth: dose-dependent reduction in growth
H441
  growth: dose-dependent reduction in growth
H522
  growth: dose-dependent reduction in growth
MDA-MB-231
  growth: dose-dependent reduction in growth
H1299
  growth: dose-dependent reduction in growth
A549
  growth: dose-dependent reduction in growth
LNCaP
  growth: dose-dependent reduction in growth
[2]
  signs of toxicity (blood counts, electrolytes, hepatic and renal function, body mass, histology, behavior): no signs of toxicity
